# Test results: patent US10398592B2, “Diagnostic methods and apparatus” (ForSight Vision4, Inc., priority 2011, dated 2019)
# Where two headings read alike, the source gives them in different places.
# How the values were obtained:
# [1] = Diffusion coefficients and equivalent size estimated from molecular weight; assay type: physicochemical; settings: for Diff Coeff: Table 2, 37 C, estimated from molecular weight; for Equiv volume / equivalent diameter: assumes unit density, per molecule; for D/(Ran D): diffusion relative to Ranibizumab
# Description: If the reservoir solution is aqueous or has a viscosity similar to water, the value for the diffusion coefficient of the therapeutic agent (TA) in water at the temperature of interest may be used. […] (Molokhia et al, Exp Eye Res 2008): DTA,37C=DBSA,20C(η20C/η37C)(MWBSA/MWTA)^1/3 where MW refers to the molecular weight of either BSA or the test compound and η is the viscosity of water.
# The diffusion constant of the stabilizer can be determined, for example, based on an estimate of hydrodynamic radius corresponding to the cube root of the molecular weight as described herein.
# The diffusion coefficients of Table 2 can be determined based on weight for molecular weights up to about 2.5 M Daltons, and based on size above about 2.5 M Daltons.
# [2] = Diffusion model of release from the therapeutic device reservoir through the porous structure; settings: for relative half-life in device 100: % of ranibizumab
# Description: The release rate of therapeutic agent 110 through a porous body, such as a sintered porous metal structure or a porous glass structure, may be described by diffusion of the therapeutic agent 110 within the porous structure 150 with the channel parameter, and with an effective diffusion coefficient equal to the diffusion coefficient of the therapeutic agent 110 in the liquid that fills the reservoir multiplied by the Porosity and a Channel Parameter of the porous body: Release Rate=(DP/F)A(cR−cV)/L, where: cR=Concentration in reservoir cV=Concentration outside of the reservoir or in the vitreous D=Diffusion coefficient of the therapeutic agent in the reservoir solution P=Porosity of porous structure F=Channel parameter that may correspond to a tortuosity parameter of channels of porous structure A=Area of porous structure L=Thickness (length) of porous structure Cumulative Release=1−cR/cR0=1−exp((−DPA/FLVR)t), where t=time, Vr=reservoir volume
# A model can be derived to describe the release rate as a function of time by relating the change of concentration in the reservoir 140 to the release rate described above. This model assumes a solution of therapeutic agent 110 where the concentration in the reservoir 140 is uniform. In addition, the concentration in the receiving fluid or vitreous is considered negligible (cV=0). Solving the differential equation and rearrangement yields the following equations describing the concentration in the reservoir as a function of time, t, and volume of the reservoir, VR, for release of a therapeutic agent 110 from a solution in a reservoir though a porous structure 150. cR=cR0 exp((−DPA/FLVR)t) and Cumulative Release=1−cR/cR0
# The molecular weight of the stabilizer can be provided in 1k Dalton increments from about 1k Dalton to about 200k Daltons and provide in a Table having about 200 rows similar to Table 2. The parameters of Table 2 determined such as the half-life in the device, the equivalent volume, the equivalent diameter, and % in the device at the half-life of the therapeutic agent 110. The table may comprise a row for each molecular weight in 1k Dalton increments, and the % of stabilizer in the device compared with the therapeutic agent 110. The table may include columns for two half-lives of the therapeutic agent, three half-lives of the therapeutic agent, four half-lives of the therapeutic agent, and the corresponding percentage of stabilizer remaining in the device.
# FIG. 104 and Table 3 show concentrations of therapeutic agent, stabilizer and the ratio of stabilizer to therapeutic agent in accordance with an exemplary embodiment, for example. The concentrations and rations can be determined by a person of ordinary skill in the art based on the teachings described herein. […] Additional concentrations of the therapeutic agent can be used, for example greater amounts of therapeutic agent.
# [3] = vitreous, human eye; cited from earlier work
# [4] = vitreous, rabbit; cited from earlier work
# [5] = vitreous, monkey; cited from earlier work
compound,measurement,setting,value
N[C@@H](Cc1c[nH]cn1)C(=O)O [Histidine],Diff Coeff,[1],6.8E−06 cm^2/s
same,Equiv volume,[1],0.3 nm^3
same,D/(Ran D),[1],6.75
same,Device Half-life relative to Ranibiz.,[2],0.15
OC[C@H]1O[C@H](O[C@H]2O[C@H](CO)[C@@H](O)[C@H](O)[C@H]2O)[C@H](O)[C@@H](O)[C@@H]1O [Trehalose],Diff Coeff,[1],5.0E−06 cm^2/s
same,Diff Coeff,[1]; listed as trehalose,~5.0E-6 cm^2/s
same,Equiv volume,[1],0.6 nm^3
same,equivalent diameter,[1],~1.1 nm
same,D/(Ran D),[1],5.03
same,Device Half-life relative to Ranibiz.,[2],0.20
same,relative amount remaining in therapeutic device 100,[2],about 3.1%
same,relative half-life in device 100,[2],about 20%
same,diffusion coefficient and rate of release through the porous structure relative to Ranibizumab,[2]; faster than Ranibizumab,approx. 5 times
Polysorbate 20,Diff Coeff,[1],3.4E−06 cm^2/s
same,Diff Coeff,[1]; listed as polysorbate 20,~3.4E-6 cm^2/s
same,Equiv volume,[1],2.0 nm^3
same,equivalent diameter,[1],~1.6 nm
same,D/(Ran D),[1],3.39
same,relative half-life in device 100,[2],about 29%
same,relative amount remaining in therapeutic device 100,[2]; at the half-life of ranibizumab,about 9.5%
Ranibizumab,Device Half-life relative to Ranibiz.,[2],1.00
same,half-life,[3],220 h
same,half-life,[4],approximately 3 days
same,half-life,[5],approximately 3 days
